From PubChem BioAssay AID1963967 (Molecular Pharmacology Branch, DTP, NCI, 2024)

System: 855422-203-R-J1-PDC spheroids with HUVEC/MSC, viability
Assay: Anticancer human tumor 855422-203-R-J1-PDC patient-derived bladder carcinoma cell line growth inhibition [PI3K]
Settings: for IC50: curve of first compound; for viability, T/C: stronger effect = lower value
In short: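 Viability of mixed-cell spheroids was determined after exposure to pairwise combinations, one partner being inavolisib, alpelisib, duvelisib or copanlisib. Highest tested concentration matched clinical Cmax where known and 10 microM where not, descending in half-log steps.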
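Also: agents incubated with spheroids for one week before read-out.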
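For viability, T/C in this document: 100% = DMSO vehicle-treated control wells.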

CCN1CCN(Cc2ccc(Nc3ncc(F)c(-c4cc(F)c5nc(C)n(C(C)C)c5c4)n3)nc2)CC1 + Cc1nc(NC(=O)N2CCCC2C(N)=O)sc1-c1ccnc(C(C)(C)C(F)(F)F)c1
IC50 (second compound 0.0316 µM): 558 nM
IC50 (second compound 0.1 µM): 816 nM
IC50 (second compound 0.316 µM): 141 nM
IC50 (second compound 1 µM): 12 nM
IC50 (second compound 3.16 µM): < 3.16 nM
IC50 (second compound 10 µM): < 3.16 nM
viability, T/C (second compound 0.0316 µM, first compound 0.00316 µM): 102%
viability, T/C (second compound 0.0316 µM, first compound 0.01 µM): 80.5%
viability, T/C (second compound 0.0316 µM, first compound 0.0316 µM): 97.1%
viability, T/C (second compound 0.0316 µM, first compound 0.1 µM): 70.4%
viability, T/C (second compound 0.0316 µM, first compound 0.316 µM): 60.1%
viability, T/C (second compound 0.0316 µM, first compound 1 µM): 40.6%
viability, T/C (second compound 0.1 µM, first compound 0.00316 µM): 99.9%
viability, T/C (second compound 0.1 µM, first compound 0.01 µM): 90.3%
viability, T/C (second compound 0.1 µM, first compound 0.0316 µM): 86%
viability, T/C (second compound 0.1 µM, first compound 0.1 µM): 67.7%
viability, T/C (second compound 0.1 µM, first compound 0.316 µM): 60.6%
viability, T/C (second compound 0.1 µM, first compound 1 µM): 47.7%
viability, T/C (second compound 0.316 µM, first compound 0.00316 µM): 80.3%
viability, T/C (second compound 0.316 µM, first compound 0.01 µM): 79.7%
viability, T/C (second compound 0.316 µM, first compound 0.0316 µM): 65.1%
viability, T/C (second compound 0.316 µM, first compound 0.1 µM): 54.9%
viability, T/C (second compound 0.316 µM, first compound 0.316 µM): 40.4%
viability, T/C (second compound 0.316 µM, first compound 1 µM): 28.2%
viability, T/C (second compound 1 µM, first compound 0.00316 µM): 57.2%
viability, T/C (second compound 1 µM, first compound 0.01 µM): 56.2%
viability, T/C (second compound 1 µM, first compound 0.0316 µM): 35.2%
viability, T/C (second compound 1 µM, first compound 0.1 µM): 34.7%
viability, T/C (second compound 1 µM, first compound 0.316 µM): 22%
viability, T/C (second compound 1 µM, first compound 1 µM): 20.2%
viability, T/C (second compound 3.16 µM, first compound 0.00316 µM): 37.1%
viability, T/C (second compound 3.16 µM, first compound 0.01 µM): 36.4%
viability, T/C (second compound 3.16 µM, first compound 0.0316 µM): 20.3%
viability, T/C (second compound 3.16 µM, first compound 0.1 µM): 18.8%
viability, T/C (second compound 3.16 µM, first compound 0.316 µM): 15.4%
viability, T/C (second compound 3.16 µM, first compound 1 µM): 16.1%
viability, T/C (second compound 10 µM, first compound 0.00316 µM): 18.5%
viability, T/C (second compound 10 µM, first compound 0.01 µM): 12.4%
viability, T/C (second compound 10 µM, first compound 0.0316 µM): 13.6%
viability, T/C (second compound 10 µM, first compound 0.1 µM): 12.1%
viability, T/C (second compound 10 µM, first compound 0.316 µM): 9.73%
viability, T/C (second compound 10 µM, first compound 1 µM): 11.2%
